According to US7897727B2, “Bioactive peptide for cell adhesion” (University of Delaware, priority 2000, dated 2011):
Entries after “also recorded” stand apart in the source; their conditions may differ. No end group written: not given here.

What was measured:
HES cells = test: Cell adhesion assay on coated 96 well plates (MTS), HES cells; assay type: cell-based, human; details: peptide conjugated to BSA coated on MAXISORP plates; 1 hr attachment at 37° C.; serum-free RPMI 1640
Method: (§1) Concentrated stocks of rat-tail type I collagen were diluted to designated concentrations in 0.02 N acetic acid and coated overnight on MAXISORP® 96 well plates at room temperature (RT). Poly-L-lysine (PLL), heat-denatured bovine serum albumin (BSA), the peptide of SEQ ID NO:1 conjugated to BSA (indicated in FIGS. 4-7 as “PLN4”) and a scrambled peptide from domain IV of perlecan having the amino acid sequence TGKSVGGSLIWPVRGQH (SEQ ID NO:4) conjugated to BSA (indicated in FIGS. 4-7 as “PLN4*”) were diluted in 1×phosphate buffered saline (PBS) and also coated overnight on MAXISORP® 96 well plates at RT. The following day, the plates were washed three times with 1×PBS to remove any residue and blocked with 1% heat-denatured BSA for 1 hr at 37° C. Following blocking, plates were washed once with 1×PBS. Cells from various cell lines were harvested with 0.5 mM EDTA and collected by centrifugation. Pelleted cells were resuspended in serum-free RPMI 1640 and plated at a concentration of 2.5×10^4 cells per 100 μl. Cells were allowed to attach to the wells for 1 hr at 37° C. Next, the wells were washed once with 1% heat-denatured BSA to remove any unattached cells. Cell adhesion was quantified as in Example 1, using the CELLTITER 96® AQueous Non-Radioactive Cell Proliferation Assay (MTS). […] Following incubation, an Elisa plate reader was used to measure optical density. […]

[1] = system: marrow stromal cells HS27a; test: Cell adhesion assay on coated 96 well plates (MTS), HS27a cells; assay type: cell-based; details: peptide conjugated to BSA coated on MAXISORP plates; 1 hr attachment at 37° C.; serum-free RPMI 1640
Method: as §1

PC3 cells = test: Cell adhesion assay on coated 96 well plates (MTS), PC3 cells; assay type: cell-based; details: peptide conjugated to BSA coated on MAXISORP plates; 1 hr attachment at 37° C.; serum-free RPMI 1640
Method: as §1

marrow stromal cells HS5 = test: Cell adhesion assay on coated 96 well plates (MTS), HS5 cells; assay type: cell-based; details: peptide conjugated to BSA coated on MAXISORP plates; 1 hr attachment at 37° C.; serum-free RPMI 1640
Method: as §1

[2] = system: multipotent mouse mesenchymal stem cells, 10T1/2; test: Cell adhesion of 10T1/2 cells to coated plastic (CELLTITER 96 MTS assay); assay type: cell-based
Method: Adhesion is measured by the cell proliferation assay CELLTITER 96® AQueous Non-Radioactive Cell Proliferation Assay (MTS) sold by Promega, Inc. The CELLTITER 96® AQueous Non-Radioactive Cell Proliferation Assay is a calorimetric method for determining the number of viable cells in proliferation, cytotoxicity or chemosensitivity assays. The CELLTITER 96® AQueous Non-Radioactive Cell Proliferation Assay is composed of solutions of a tetrazolium compound (3-(4,5-dimethylthiazol-2-yl)-5-(3-carboxymethoxyphenyl)-2-(4-su-lfophenyl)-2H-tetrazolium, inner salt; MTS) and an electron coupling reagent (phenazine methosulfate) PMS. MTS is bioreduced by cells into a formazan that is soluble in tissue culture medium. The absorbance of the formazan at 490 nm can be measured directly from 96 well assay plates without additional processing. The conversion of MTS into the aqueous soluble formazan is accomplished by dehydrogenase enzymes found in metabolically active cells. The quantity of formazan product as measured by the amount of 490 nm absorbance is directly proportional to the number of living cells in culture.
No adhesion to uncoated plastic occurred during the 30 minute time period of this study. BSA (bovine serum albumin) and poly-L-lysine (PLL) were used as coating controls. Collagen I, a known adhesive protein substrate for these cells, served as positive control. […]

Sequence	cell adhesion / attachment and spreading, HES cells (HES cells)	cell adhesion / attachment and spreading, HS27a cells [1]	cell adhesion / attachment and spreading, PC3 cells (PC3 cells)	cell adhesion / attachment and spreading, HS5 cells (marrow stromal cells HS5)	adhesion of 10T1/2 cells ([2]; peptide conjugated to BSA, coated onto plastic, 30 minute time period, MTS absorbance 490 nm, listed as SEQ ID NO:1)	focal adhesion formation of 10T1/2 cells (photomicrographs) ([2]; plastic coated with BSA conjugated to the polypeptide)
TGKSVGGSLIWPVRGQH (also: conjugated to BSA) [PLN4*, scrambled peptide from domain IV of perlecan, conjugated to BSA, reference compound]	cell attachment and spreading did not occur	cell attachment and spreading did not occur	cell attachment and spreading did not occur	cell attachment and spreading did not occur	–	–
TWSKVGGHLRPGIVQSG (also: conjugated to BSA; listed as Homo sapiens) [PLN4, adhesive polypeptide derived from domain IV of perlecan; tested conjugated to BSA]	best adhesion and rapid focal adhesion formation of these four cell types	did not bind to the peptide	best adhesion and rapid focal adhesion formation of these four cell types	did not bind to the peptide	consistently strong; also recorded: best adhesion of the cell types reported herein	adhesion is followed by focal adhesion formation
